The compounds below were run against EGFR del19/T790M/C797S mutant kinase (Homo sapiens, UniProt P00533, C797S/DEL746-750/T790M) (assay: HTRF kinase assay, EGFR del19/T790M/C797S mutant kinase). Conditions: 120 minutes at room temperature.
Sequence of EGFR del19/T790M/C797S mutant kinase (P00533 with tags, fused parts or gaps C797S/DEL746-750/T790M limits assumed): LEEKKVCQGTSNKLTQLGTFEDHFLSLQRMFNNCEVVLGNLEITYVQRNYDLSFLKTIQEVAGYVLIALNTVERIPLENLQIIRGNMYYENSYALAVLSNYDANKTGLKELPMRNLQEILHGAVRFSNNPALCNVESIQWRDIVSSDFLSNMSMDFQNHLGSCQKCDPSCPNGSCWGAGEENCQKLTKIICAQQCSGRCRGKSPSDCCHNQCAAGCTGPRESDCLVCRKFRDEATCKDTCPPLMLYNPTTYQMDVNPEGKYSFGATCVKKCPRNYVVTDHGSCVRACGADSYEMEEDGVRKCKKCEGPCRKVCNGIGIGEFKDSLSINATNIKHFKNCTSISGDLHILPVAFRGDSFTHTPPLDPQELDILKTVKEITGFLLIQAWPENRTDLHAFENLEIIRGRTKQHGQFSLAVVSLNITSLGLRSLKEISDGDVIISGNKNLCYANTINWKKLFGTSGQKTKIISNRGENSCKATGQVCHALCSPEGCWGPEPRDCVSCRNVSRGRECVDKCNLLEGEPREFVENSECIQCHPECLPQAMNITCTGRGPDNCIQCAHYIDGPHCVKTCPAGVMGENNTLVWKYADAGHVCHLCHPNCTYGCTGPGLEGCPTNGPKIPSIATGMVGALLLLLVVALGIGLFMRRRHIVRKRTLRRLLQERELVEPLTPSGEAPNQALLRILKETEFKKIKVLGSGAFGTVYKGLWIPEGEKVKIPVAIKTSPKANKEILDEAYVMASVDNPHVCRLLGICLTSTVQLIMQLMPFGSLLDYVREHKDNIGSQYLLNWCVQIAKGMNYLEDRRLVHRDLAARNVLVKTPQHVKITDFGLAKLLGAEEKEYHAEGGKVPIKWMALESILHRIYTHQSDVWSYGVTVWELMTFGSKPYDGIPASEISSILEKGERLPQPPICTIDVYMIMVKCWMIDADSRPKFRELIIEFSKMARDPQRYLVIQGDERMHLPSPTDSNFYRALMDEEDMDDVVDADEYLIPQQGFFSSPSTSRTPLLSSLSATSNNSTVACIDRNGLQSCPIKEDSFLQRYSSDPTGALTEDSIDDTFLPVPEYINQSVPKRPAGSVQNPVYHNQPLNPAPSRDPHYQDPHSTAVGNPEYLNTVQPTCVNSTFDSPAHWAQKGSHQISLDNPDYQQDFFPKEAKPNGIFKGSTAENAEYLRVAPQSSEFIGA
Format: biochemical
Description: Test Example 1. Determination of the Inhibitory Effect of the Compounds of the Present Invention on the Activity of EGFR del19/T790M/C797S and EGFR L858R/T790M/C797S Mutant Kinases
Experimental objective: The objective of this test example is to test the inhibitory activity of the compounds on the activity of EGFR del19/T790M/C797S and EGFR L858R/T790M/C797S mutant kinases.
Experimental method: This experiment used Cisbio's HTRF kinase assay method (Cisbio #62TK0PEB), wherein a catalytic reaction occurred between the substrate polypeptide TK and ATP in the presence of the tyrosine kinase with EGFR del19/T790M/C797S or EGFR L858R/T790M/C797S mutation, the substance was phosphorylated, and the activity of the kinase was characterized by measuring the content of the phosphorylated substrate generated during the reaction, and the half inhibitory concentration IC50 of the compound on the activity of EGFR del19/T790M/C797S or EGFR L858R/T790M/C797S mutant kinase was obtained.
Specific Experimental Operations were as Follows: • the kinase reaction was carried out in a white 384-well plate (Perkin Elmer #6008280), and 1-5 μL of compounds of different concentrations which were diluted with 1% DMSO-containing ddH2O were added; to the positive control wells were added 1-5 μL of 1% DMSO-containing ddH2O, followed by 1-5 μL of 0.5-5 nM 4×EGFR del19/T790M/C797S or EGFR L858R/T790M/C797S mutant kinase solution which was diluted with Dilution buffer (5× kinase buffer, MgCl2 6.65 Mm, MnCl2 1.33 mM, DTT 1.33 mM); to the negative control wells were added 1-5 μL of Dilution buffer; to all the wells were added 1-5 μL of 4 μM 4× substrate TK solution which was prepared with 10× Dilution buffer, and finally added 1-5 μL of 24 μM 4×ATP solution which was diluted with Dilution buffer to start the reaction; after reacting at room temperature for 120 minutes, 10 μL of detection solution (TK antibody 16 nM, XL665 0.5 μM) was added to each well, same was reacted at room temperature in the dark for 20 minutes, and then the […] was detected using a BioTek Synergy H1 microplate reader.
The percent inhibition data for compound-treated wells was calculated according to the positive control wells (DMSO control wells) and negative control wells (no kinase added) on the plate {% inhibition rate=100−[(test compound value−negative control value)]/(positive control value−negative control value)×100}. GraphPad prism was used to fit different concentrations and corresponding percent inhibition rate data to a 4-parameter nonlinear logistic equation to calculate IC50 values.
Work on `CC(C)c1ccc(N2C[C@H](CS(C)(=O)=O)[C@H]2C)c2cnc(Nc3ccnc(-c4cnn(CC5(CC#N)CC5)c4)n3)cc12` [Example 18, 2-(1-((4-(4-((5-isopropyl-8-((2R,3S)-2-methyl-3-((methanesulfonyl)methyl)azetidin-1-yl)isoquinolin-3-yl)amino)pyrimidin-2-yl)-1H-pyrazol-1-yl)methyl)cyclopropyl)acetonitrile] yielded an IC50 of 9.1 nM.

These compounds were tested on Ba/F3 EGFR Del19/C797S cells (assay: Cell proliferation inhibition assay (Cell Titer-Glo), Ba/F3 EGFR Del19/C797S). Conditions: 72 hours, read-out: Ba/F3 EGFR Del19_C797S IC50.
Format: cell-based
Description: Test Example 2: Cell Proliferation Inhibition Assay
Experimental objective: The objective of this test example is to test the inhibitory activity of compounds on the proliferation of different EGFR C797S drug-resistant mutant cell lines Ba/F3 EGFR Del19/T790M/C797S, Ba/F3 EGFR L858R/T790M/C797S, and Ba/F3 EGFR Del19/C797S.
• Ba/F3 EGFR Del19/T790M/C797S cells were purchased from KYinno Biotechnology Co., Ltd.; • Ba/F3 EGFR Del19/C797S cells were purchased from CoBioer Biosciences Co., Ltd.; • Ba/F3 EGFR L858R/T790M/C797S cells were purchased from CoBioer Biosciences Co., Ltd.; • Cell Titer-Glo was purchased from Promega, with a catalog number of G7573; • RPMI 1640 was purchased from Gibco, with a catalog number of 22400089; • FBS was purchased from Gibco, with a catalog number of 10091148; • cell culture plates were purchased from Corning, with a catalog number of 3610.
The inhibitory activity of the compound on the proliferation of different EGFR C797S drug-resistant mutant cell lines was detected using the Cell Titer-Glo method. The different cell lines were cultured in RPMI 1640 complete culture medium containing 10% FBS under conditions of 37° C. and 5% CO2, the cells were collected by centrifugation when growing to a certain density, and adjusted to appropriate cell density after counting, the cells were spread on a white 96-well plate at 90 μL/well, and cultured in a 37° C., 5% CO2 incubator overnight, prepared compound solutions of different concentrations were added at 10 μL/well, corresponding solvent controls were set, and all wells were cultured in a 37° C., 5% CO2 incubator for 72 hours, 50 μL of CellTiter-Glo solution was added to each well, shook and mixed evenly, and incubated in the dark for 10 minutes, and a BioTek Synergy H1 microplate reader was used for reading.
The luminescence signal value was used to calculate the inhibition rate. Graphpad Prism software was used to fit the concentration and inhibition rate to a nonlinear regression curve, so as to obtain the IC50 value, as shown in Tables 3 and 4 below for details.
Work on `CC(C)c1ccc(N2C[C@H](CS(C)(=O)=O)[C@H]2C)c2cnc(Nc3ccnc(-c4cn(C)nc4F)n3)cc12` [Example 62, N-(2-(3-fluoro-1-methyl-1H-pyrazolyl-4-yl)pyrimidin-4-yl)-5-isopropyl-8-((2R,3S)-2-methyl-3-((methanesulfonyl)methyl)azabut-1-yl)isoquinolin-3-amine] yielded an IC50 of 40 nM. For `CC(C)c1ccc(C2CC(CS(C)(=O)=O)C2)c2cnc(Nc3ccnc(-c4cn(C)nc4Cl)n3)cc12` (centres unmarked) [Example 63, N-(2-(3-chloro-1-methyl-1H-pyrazol-4-yl)pyrimidin-4-yl)-5-isopropyl-8-(3-((methanesulfonyl)methyl)cyclobutyl)isoquinolin-3-amine], the IC50 was 30 nM. `[2H]C([2H])([2H])n1cc(-c2nccc(Nc3cc4c(C(C)C)ccc(N5C[C@H](CS(C)(=O)=O)[C@H]5C)c4cn3)n2)c([N+](=O)[O-])n1` [Example 64, 5-isopropyl-8-((2R,3S)-2-methyl-3-((methanesulfonyl)methyl)azetidin-1-yl)-N-(2-(1-(methyl-d3)-3-nitro-1H-pyrazol-4-yl)pyrimidin-4-yl)isoquinolin-3-amine] was tested, and the IC50 was 62 nM. With `[2H]C([2H])([2H])n1cc(-c2nccc(Nc3cc4c(C(C)C)ccc(N5C[C@H](CS(C)(=O)=O)[C@H]5C)c4cn3)n2)c(F)n1` [Example 65, N-(2-(3-fluoro-1-(methyl-d3)-1H-pyrazol-4-yl)pyrimidin-4-yl)-5-isopropyl-8-((2R,3S)-2-methyl-3-((methylsulfonyl)methyl)azabut-1-yl)isoquinolin-3-amine] the IC50 was 84 nM. Work on `CC(C)c1ccc(N2C[C@H](CS(C)(=O)=O)[C@H]2C)c2cnc(Nc3ccnc(-c4cn(CCC#N)nc4Cl)n3)cc12` [Example 67, 3-(3-chloro-4-(4-((5-isopropyl-8-((2R,3S)-2-methyl-3-((methanesulfonyl)methyl)azetidin-1-yl)isoquinolin-3-yl)amino)pyrimidin-2-yl)-1H-pyrazol-1-yl)propanenitrile] yielded an IC50 of 20 nM. With `CC(C)c1ccc(N2CC(N3CCCS3(=O)=O)C2)c2cnc(Nc3ccnc(-c4cn(C)nc4Cl)n3)cc12` [Example 68, 2-(1-(3-((2-(3-chloro-1-methyl-1H-pyrazol-4-yl)pyrimidin-4-yl)amino)-5-isopropylisoquinolin-8-yl)azetidin-3-yl)isothiazolidine 1,1-dioxide] the IC50 was 21 nM. `Cc1nn(C)cc1-c1nccc(Nc2cc3c(C(C)C)ccc(N4CC(N5CCCS5(=O)=O)C4)c3cn2)n1` [Example 69, 2-(1-(3-((2-(1,3-dimethyl-1H-pyrazol-4-yl)pyrimidin-4-yl)amino)-5-isopropylisoquinolin-8-yl)azetidin-3-yl)isothiazolidine 1,1-dioxide] showed an IC50 of 51 nM. For `CC(C)c1ccc(N2C[C@H](CS(C)(=O)=O)[C@H]2C)c2cnc(Nc3ccnc(-c4cn(CCN)nc4Cl)n3)cc12` [Example 71, N-(2-(1-(2-aminoethyl)-3-chloro-1H-pyrazol-4-yl)pyrimidin-4-yl)-5-isopropyl-8-((2R,3S)-2-methyl-3-((methanesulfonyl)methyl)azetidin-1-yl)isoquinolin-3-amine], the IC50 was 96 nM. With `COC(=O)NC1CN(c2ccc(C(C)C)c3cc(Nc4ccnc(-c5cn(C)nc5Cl)n4)ncc23)C1` [Example 72, methyl (1-(3-((2-(3-chloro-1-methyl-1H-pyrazol-4-yl)pyrimidin-4-yl)amino)-5-isopropylisoquinolin-8-yl)azetidin-3-yl)carbamate] the IC50 was 77 nM. `CC(C)c1ccc(N2CC(C[N+](=O)[O-])C2)c2cnc(Nc3ccnc(-c4cn(C)nc4Cl)n3)cc12` [Example 75, N-(2-(3-chloro-1-methyl-1H-pyrazol-4-yl)pyrimidin-4-yl)-5-isopropyl-8-(3-(nitromethyl)azetidin-1-yl)isoquinolin-3-amine] showed an IC50 of 28 nM. `CC(C)c1ccc(N2CC(C[S+](C)[O-])C2)c2cnc(Nc3ccnc(-c4cn(C)nc4Cl)n3)cc12` (centres unmarked) [Example 76, N-(2-(3-chloro-1-methyl-H-pyrazol-4-yl)pyrimidin-4-yl)-5-isopropyl-8-(3-((methylsulfinyl<sulfenyl>)methyl)azetidin-1-yl)isoquinolin-3-amine] gave an IC50 of 63 nM. `Cc1nn(C)c(F)c1-c1nccc(Nc2cc3c(C(C)C)ccc(N4C[C@H](CS(C)(=O)=O)[C@H]4C)c3cn2)n1` [Example 77, N-(2-(5-fluoro-1,3-dimethyl-1H-pyrazol-4-yl)pyrimidin-4-yl)-5-isopropyl-8-((2R,3S)-2-methyl-3-((methanesulfonyl)methyl)azetidin-1-yl)isoquinolin-3-amine] gave an IC50 of 12 nM. For `CC(C)c1ccc(N2C[C@H](CS(C)(=O)=O)[C@H]2C)c2cnc(Nc3ccnc(-c4cn(C5COC5)nc4Cl)n3)cc12` [Example 81, N-(2-(3-chloro-1-(oxetan-3-yl)-1H-pyrazol-4-yl)pyrimidin-4-yl)-5-isopropyl-8-((2R,3S)-2-methyl-3-((methanesulfonyl)methyl)azetidin-1-yl)isoquinolin-3-amine], the IC50 was 50 nM. `CC(C)c1ccc(N2C[C@H](CS(C)(=O)=O)[C@H]2C)c2cnc(Nc3ccnc(-c4cn(CC(O)CF)nc4Cl)n3)cc12` (stereo partly drawn) [Example 82, 1-(3-chloro-4-(4-((5-isopropyl-8-((2R,3S)-2-methyl-3-((methanesulfonyl)methyl)azetidin-1-yl)isoquinolin-3-yl)amino)pyrimidin-2-yl)-1H-pyrazol-1-yl)-3-fluoropropan-2-ol] gave an IC50 of 33 nM. `Cc1nn(C)cc1-c1nccc(Nc2cc3c(C(C)C)ccc(N4CC(CS(C)(=O)=NC#N)C4)c3cn2)n1` (centres unmarked) [Example 83, N-(((1-(3-((2-(1,3-dimethyl-1H-pyrazol-4-yl)pyrimidin-4-yl)amino)-5-isopropylisoquinolin-8-yl)azetidin-3-yl)methyl)(methyl)(carbonyl)-l6-sulfanylidene)cyanamide] gave an IC50 of 74 nM. In the case of `CC(C)c1ccc(N2CC(N3C[C@@H](C)OC3=O)C2)c2cnc(Nc3ccnc(-c4cn(C)nc4Cl)n3)cc12` [Example 84, (R)-3-(1-(3-((2-(3-chloro-1-methyl-1H-pyrazol-4-yl)pyrimidin-4-yl)amino)-5-isopropylisoquinolin-8-yl)azetidin-3-yl)-5-methyloxazolidin-2-one], the IC50 is reported as 93 nM.
